Among the test systems are 786-0 renal; DU-145 prostate; HCC-2998 colon; HOP-62 NSCLC; HOP-92 NSCLC; MCF7 breast; MOLT-4 leukemia; NCI-H522 lung; TK-10 renal; UACC-62 melanoma.
What all share (assay): DTP human tumour cell line panel, 48 h

Values joined by “and” are separate entries in the source; they are usually repeats but may differ in a detail not shown here. Equal entries are not always repeated.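 Briefly, cells in 96-well plates were exposed to five compound concentrations for 48 h, and endpoints were estimated by linear interpolation. The concentration for 50% growth inhibition is given as GI50. TGI denotes the concentration required for complete inhibition of growth.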

As a reminder, the GI50 is the concentration at which growth is held to half of that of the control. The TGI is the concentration giving total growth inhibition. A low value points to more potent growth arrest. Take `O=C1c2cccnc2-c2nc(-c3ccccn3)cc3c2c1nc1ccccc13`: the 50% growth inhibitory concentration (GI50) is 0.0825 µM in the assay with 786-0 renal; 0.156 µM in the assay on DU-145 prostate; 0.412 µM in the assay with HCC-2998 colon; 0.139 µM with HOP-62 NSCLC; 0.241 µM in the assay with HOP-92 NSCLC; 0.463 µM in the assay with MCF7 breast. The GI50 in the assay on MOLT-4 leukemia is 0.211 µM; in the assay on NCI-H522 lung, 0.141 µM; in the assay with TK-10 renal, 0.296 µM; in the assay with UACC-62 melanoma it was 0.191 µM. The TGI is 0.26 µM with 786-0 renal; 0.57 µM in the assay on DU-145 prostate; 1.48 µM with HCC-2998 colon; 1.49 µM with HOP-62 NSCLC; 0.729 µM with HOP-92 NSCLC; 2.22 µM with MCF7 breast. For the same molecule, the TGI with MOLT-4 leukemia is 4.09 µM; with NCI-H522 lung, 0.32 µM; in the assay on TK-10 renal, 1.11 µM; in the assay on UACC-62 melanoma, 0.63 µM.
As to `O=C(Nc1ncc([N+](=O)[O-])s1)c1cccc([N+](=O)[O-])c1`, the GI50 in the assay on 786-0 renal is 2.57 µM; in the assay with DU-145 prostate it was 9.89 µM; with HCC-2998 colon it was 3.2 µM; in the assay on HOP-62 NSCLC it was 3.75 µM; in the assay on HOP-92 NSCLC, 1.99 µM; in the assay on MCF7 breast it was 3.02 µM. Besides, the GI50 is 3.04 µM in the assay with MOLT-4 leukemia, 3.18 µM with NCI-H522 lung, 4.59 µM with TK-10 renal and 2.38 µM with UACC-62 melanoma. For the same molecule, the TGI in the assay on 786-0 renal was greater than 92 µM; in the assay with DU-145 prostate, greater than 100 µM; in the assay on HCC-2998 colon, greater than 100 µM; in the assay on HOP-62 NSCLC, greater than 40.9 µM; in the assay with HOP-92 NSCLC it was 6.86 µM; in the assay with MCF7 breast, greater than 88.2 µM. For the same molecule, the TGI is greater than 34.1 µM with MOLT-4 leukemia, 65.9 µM with NCI-H522 lung, 37.3 µM with TK-10 renal and greater than 32.7 µM in the assay with UACC-62 melanoma.
Consider `COC(=O)c1ccc(-c2nc3cc(F)c(F)cc3nc2C#N)cc1`, for which the GI50 in the assay on 786-0 renal was 26.4 µM; in the assay on DU-145 prostate, 8.7 µM; in the assay with HCC-2998 colon, 8.41 µM; in the assay with HOP-62 NSCLC, 9.9 µM; in the assay with HOP-92 NSCLC, 9.8 µM; in the assay on MCF7 breast, 8.86 µM. For the same molecule, the GI50 with MOLT-4 leukemia was 3.27 µM; in the assay with NCI-H522 lung, 6.36 µM; with TK-10 renal, 17.4 µM; with UACC-62 melanoma it was 2.66 µM. For the same molecule, the concentration for total growth inhibition (TGI) in the assay with 786-0 renal is 50 µM; in the assay on DU-145 prostate it was 17.3 µM; in the assay with HCC-2998 colon, 16.1 µM; in the assay with HOP-62 NSCLC it was 18 µM; in the assay on HOP-92 NSCLC it was 21.1 µM; with MCF7 breast, 23.6 µM. For the same molecule, the TGI with MOLT-4 leukemia turned out to be 12.3 µM; with NCI-H522 lung it was 35.4 µM; in the assay on TK-10 renal, 42.2 µM; with UACC-62 melanoma, 5.83 µM.
As for `C=C1C(=O)O[C@H]2[C@H]1CC/C(COC(=O)/C=C/c1cccnc1)=C\CC[C@@]1(C)O[C@@H]21`, the GI50 in the assay on 786-0 renal is 1.1 µM; in the assay on DU-145 prostate, 1.39 µM; with HCC-2998 colon, 5.02 µM; with HOP-62 NSCLC, 11.5 µM; with HOP-92 NSCLC it was 0.853 µM; in the assay with MCF7 breast, 0.748 µM. For the same molecule, the GI50 in the assay on MOLT-4 leukemia is 1.75 µM; in the assay with NCI-H522 lung it was 1.33 µM; in the assay on TK-10 renal, 2.01 µM; in the assay with UACC-62 melanoma it was 1.89 µM. The TGI in the assay on 786-0 renal stood at 2.58 µM; in the assay on DU-145 prostate, 3.01 µM; in the assay on HCC-2998 colon, 17.1 µM; in the assay with HOP-62 NSCLC it was 24.6 µM; in the assay on HOP-92 NSCLC, 2.74 µM; with MCF7 breast, 2.72 µM. Moreover, the TGI in the assay on MOLT-4 leukemia came to 4.9 µM; in the assay on NCI-H522 lung, 3.48 µM; in the assay with TK-10 renal, 4.06 µM; in the assay on UACC-62 melanoma it was 5 µM.
On to `NCCCn1c2c(c3ccccc3c1=O)C(=O)c1cc3c(cc1-2)OCO3`, for which the GI50 with 786-0 renal was 0.241 µM; in the assay on DU-145 prostate it was 0.137 µM; in the assay with HCC-2998 colon, less than 0.01 µM; in the assay on HOP-62 NSCLC, 0.278 µM; in the assay with HOP-92 NSCLC it was 0.568 µM; in the assay on MCF7 breast, 0.126 µM. Besides, the 50% growth inhibitory concentration (GI50) was less than 0.01 µM in the assay with MOLT-4 leukemia, 0.474 µM with NCI-H522 lung and 0.0631 µM in the assay with UACC-62 melanoma. The TGI in the assay with 786-0 renal is 3.1 µM; in the assay with DU-145 prostate it was 0.638 µM; in the assay on HCC-2998 colon, 1.11 µM; in the assay with HOP-62 NSCLC, 12.2 µM; in the assay with HOP-92 NSCLC it was 15.9 µM; in the assay on MCF7 breast, greater than 52.7 µM. Further, the figures for the TGI in the assay on NCI-H522 lung, in the assay with TK-10 renal and in the assay on UACC-62 melanoma were 4.79 µM, 4.17 µM and 0.62 µM, respectively.
Take `COc1ccc(/C=C(\C#N)n2nnc3cc(Cl)ccc32)cc1`: the GI50 in the assay with 786-0 renal was 0.709 µM; in the assay with DU-145 prostate, 1.71 µM; with HCC-2998 colon, 1.87 µM; with HOP-62 NSCLC it was 0.887 µM; in the assay on HOP-92 NSCLC, 0.552 µM; with MCF7 breast, 0.375 µM. For the same molecule, the GI50 was 1.09 µM in the assay with MOLT-4 leukemia, 0.18 µM in the assay with NCI-H522 lung, 1.65 µM in the assay on TK-10 renal and 0.382 µM in the assay on UACC-62 melanoma. Also, the TGI is 8.61 µM with 786-0 renal; 7.58 µM with DU-145 prostate; 8.14 µM in the assay on HCC-2998 colon; 11.1 µM in the assay on HOP-62 NSCLC; 4.27 µM with HOP-92 NSCLC; greater than 33.3 µM with MCF7 breast. Besides, the TGI was greater than 100 µM with MOLT-4 leukemia, 0.704 µM in the assay on NCI-H522 lung, 11.5 µM with TK-10 renal and 9.66 µM with UACC-62 melanoma.
On to `Cc1c2ncccc2c(C)c2c1[nH]c1ccc(O)cc12`, for which the GI50 with 786-0 renal is 5.25 µM; with DU-145 prostate it was 5.31 µM; in the assay with HOP-62 NSCLC, 4.01 µM and 5.07 µM; in the assay with MCF7 breast it was 5.95 µM and 8.58 µM; in the assay with TK-10 renal, 17.4 µM; with UACC-62 melanoma, 7.92 µM. Besides, the total growth inhibition concentration (TGI) is 15.6 µM and 11.6 µM in the assay on 786-0 renal; 17.9 µM in the assay with DU-145 prostate; 17.9 µM and 12.3 µM with HCC-2998 colon; 10.8 µM and 59.5 µM in the assay on HOP-62 NSCLC; 17.3 µM with HOP-92 NSCLC; 15.2 µM and 50 µM with MCF7 breast. The TGI in the assay on MOLT-4 leukemia is 3.56 µM and 2.13 µM; with NCI-H522 lung it was 19.6 µM; in the assay on TK-10 renal, 25.9 µM and 61.6 µM; in the assay on UACC-62 melanoma, 27.1 µM and 21.1 µM.

(Values after PubChem BioAssay (NCI).)
